Converted amounts (≈) assume the structure as drawn. Read-outs that look alike come from different tables or passages of the source.
Assays:
[1] = test system: P. aeruginosa; assay: MIC, broth microdilution; format: cell-based, Pseudomonas aeruginosa
Text: (§1) Bacterial strains and growth conditions and persister isolation: methicillin-resistant S. aureus (MRSA) strain MW2 BAA-1707, vancomycin-resistant S. aureus strain VRS 1, 11 clinical S. aureus isolates, 8 clinical Enterococcus faecium isolates, Klebsiella pneumoniae WGLW2 (BEI Resources, Manassas, Va., USA), Acinetobacter baumannii ATCC 17978, Pseudomonas aeruginosa PA14, and Enterobacter aerogenes ATCC 13048 were used to test antimicrobial activity (See Table 1a). S. aureus and E. faecium strains were grown in tryptic soy broth (TSB) (BD, Franklin Lakes, N.J., USA) or brain-heart infusion (BHI) broth (BD, Franklin Lakes, N.J., USA), respectively at 37° C. at 225 rpm. K. pneumoniae, A. baumannii, P. aeruginosa, and E. aerogenes were grown in Luria Bertani (LB) broth (BD, Franklin Lakes, N.J., USA).
(§2) To test the bacterial MICs for compounds described herein, the total volume in each well was 100 μl of test compounds and bacterial cells in MH broth. […] The bacterial concentration was adjusted to an initial OD600 of 0.03. After incubation at 35° C. for 18 hrs, the absorbance was measured at 595 nm in accordance with CLSI document M07-A8. The MICs of antibiotics were determined by the standard microdilution method recommended by the Clinical and Laboratory Standards Institute.

[2] = test system: A. baumannii; assay: MIC, broth microdilution; format: cell-based, Acinetobacter baumannii
Text: as §1, §2

[3] = test system: S. aureus MW2 (MRSA) in neutropenic mouse thigh; conditions: previous study (Conlon 2013); cited from earlier work
[4] = test system: E. aerogenes ATCC 13048; assay: MIC, broth microdilution; format: cell-based, Enterobacter aerogenes
Text: as §1, §2

[5] = test system: E. faecium; assay: MIC, broth microdilution; format: cell-based, Enterococcus faecium; conditions: for MIC: Enterococcus faecium
Text: as §1, §2

[6] = test system: S. aureus; assay: Minimal inhibitory concentration (MIC), broth microdilution; format: cell-based, Staphylococcus aureus
Text: as §1, §2

[7] = test system: K. pneumonia WGLW2; assay: MIC, broth microdilution; format: cell-based, Klebsiella pneumoniae
Text: as §1, §2

[8] = test system: S. aureus persister cells (stationary phase); assay: Persister killing assay; format: cell-based, Staphylococcus aureus; conditions: 4 μg/ml CD437 or CD1530 or 10 μg/ml gentamicin alone
Protocol: Persister killing assay. […] Persister cells of these 13 S. aureus strains were developed by growing cultures overnight to stationary phase at 37° C. at 225 rpm. The overnight cultures were washed three times with PBS and diluted to ˜10^7 CFU/ml with the same buffer, which is the same concentration as used in the killing kinetics assay described herein. 1 ml of the persister suspension containing appropriate concentrations of antibiotics was added to the wells of a 2 ml deep well assay block (Corning Costar 3960) and incubated at 37° C., with shaking at 225 rpm. At specific times, 50 μl samples were removed, serially diluted and spot-plated on TSA plates to enumerate the number of live cells. These experiments were conducted in triplicate.

## CN[C@H](CC(C)C)C(=O)N[C@H]1C(=O)N[C@@H](CC(N)=O)C(=O)N[C@H]2C(=O)N[C@H]3C(=O)N[C@H](C(=O)N[C@H](C(=O)O)c4cc(O)cc(O)c4-c4cc3ccc4O)[C@H](O)c3ccc(c(Cl)c3)Oc3cc2cc(c3O[C@@H]2O[C@H](CO)[C@@H](O)[C@H](O)[C@H]2O[C@H]2C[C@](C)(N)[C@H](O)[C@H](C)O2)Oc2ccc(cc2Cl)[C@H]1O [Vancomycin, vancomycin]
[1]; Pseudomonas aeruginosa, PA14, read-out: Minimum inhibitory concentration
  MIC: > 64 µg/mL
[2]; Acinetobacter baumannii, ATCC17978, read-out: Minimum inhibitory concentration
  MIC: > 64 µg/mL
[3]
  reduction of MRSA CFUs in the deep-seated mouse thigh infection model: unable to significantly reduce
[4]; Klebsiella aerogenes, ATCC13048, read-out: Minimum inhibitory concentration
  MIC: > 64 µg/mL
[5]; read-out: Minimum inhibitory concentration, E. faecium C68
  MIC: 64 µg/mL (≈ 44.2 µM)
[5]; read-out: Minimum inhibitory concentration, E. faecium D14
  MIC: 2 µg/mL (≈ 1.38 µM)
[5]; read-out: Minimum inhibitory concentration, E. faecium D24
  MIC: 1 µg/mL (≈ 0.69 µM)
[5]; read-out: Minimum inhibitory concentration, E. faecium D25
  MIC: 1 µg/mL (≈ 0.69 µM)
[5]; read-out: Minimum inhibitory concentration, E. faecium D29
  MIC: 2 µg/mL (≈ 1.38 µM)
[5]; read-out: Minimum inhibitory concentration, E. faecium E007
  MIC: 1 µg/mL (≈ 0.69 µM)
[5]; read-out: Minimum inhibitory concentration, E. faecium WB213
  MIC: 16 µg/mL (≈ 11 µM)
[5]; read-out: Minimum inhibitory concentration, E. faecium WC176
  MIC: 64 µg/mL (≈ 44.2 µM)
[6]; Staphylococcus aureus, S. aureus MW2 mutant SP1-8 (graS)
  MIC: 0.5 µg/mL (≈ 0.345 µM)
[6]; Staphylococcus aureus, S. aureus MW2 mutant SP1-48 (graS, manA)
  MIC: 0.5 µg/mL (≈ 0.345 µM)
[6]; Staphylococcus aureus, S. aureus MW2 mutant SP1-74 (graS, manA, MW2474)
  MIC: 0.5 µg/mL (≈ 0.345 µM)
[6]; Staphylococcus aureus, S. aureus MW2 mutant SP1-100 (graS, manA, MW2474)
  MIC: 0.5 µg/mL (≈ 0.345 µM)
[6]; Staphylococcus aureus, S. aureus MW2 mutant SP2-13 (yjbH)
  MIC: 1 µg/mL (≈ 0.69 µM)
[6]; Staphylococcus aureus, S. aureus MW2 mutant SP2-52 (yjbH, dltB)
  MIC: 0.5 µg/mL (≈ 0.345 µM)
[6]; Staphylococcus aureus, S. aureus MW2 mutant SP2-59 (yjbH, dltB, manA)
  MIC: 0.5 µg/mL (≈ 0.345 µM)
[6]; Staphylococcus aureus, S. aureus MW2 mutant SP2-65 (yjbH, dltB, manA, MW1685)
  MIC: 0.5 µg/mL (≈ 0.345 µM)
[6]; Staphylococcus aureus, S. aureus MW2 mutant SP2-100 (yjbH dltB, manA, MW1685)
  MIC: 0.5 µg/mL (≈ 0.345 µM)
[6]; Staphylococcus aureus, S. aureus MW2 serial passage culture SP1-1 (no mutated gene)
  MIC: 1 µg/mL (≈ 0.69 µM)
[6]; Staphylococcus aureus, S. aureus MW2 serial passage culture SP2-1 (no mutated gene)
  MIC: 1 µg/mL (≈ 0.69 µM)
[6]; Staphylococcus aureus, read-out: Drug MIC, Staphylococcus aureus clinical isolate BF1 (Table 5)
  MIC: 2 µg/mL (≈ 1.38 µM)
[6]; Staphylococcus aureus, read-out: Drug MIC, Staphylococcus aureus clinical isolate BF2 (Table 5)
  MIC: 2 µg/mL (≈ 1.38 µM)
[6]; Staphylococcus aureus, read-out: Drug MIC, Staphylococcus aureus clinical isolate BF3 (Table 5)
  MIC: 4 µg/mL (≈ 2.76 µM)
[6]; Staphylococcus aureus, read-out: Drug MIC, Staphylococcus aureus clinical isolate BF4 (Table 5)
  MIC: 2 µg/mL (≈ 1.38 µM)
[6]; Staphylococcus aureus, read-out: Drug MIC, Staphylococcus aureus clinical isolate BF5 (Table 5)
  MIC: 2 µg/mL (≈ 1.38 µM)
[6]; Staphylococcus aureus, read-out: Drug MIC, Staphylococcus aureus clinical isolate BF6 (Table 5)
  MIC: 2 µg/mL (≈ 1.38 µM)
[6]; Staphylococcus aureus, read-out: Drug MIC, Staphylococcus aureus clinical isolate BF7 (Table 5)
  MIC: 2 µg/mL (≈ 1.38 µM)
[6]; Staphylococcus aureus, read-out: Drug MIC, Staphylococcus aureus clinical isolate BF8 (Table 5)
  MIC: 2 µg/mL (≈ 1.38 µM)
[6]; Staphylococcus aureus, read-out: Drug MIC, Staphylococcus aureus clinical isolate BF9 (Table 5)
  MIC: 2 µg/mL (≈ 1.38 µM)
[6]; Staphylococcus aureus, read-out: Drug MIC, Staphylococcus aureus clinical isolate BF10 (Table 5)
  MIC: 2 µg/mL (≈ 1.38 µM)
[6]; Staphylococcus aureus, read-out: Drug MIC, Staphylococcus aureus clinical isolate BF11 (Table 5)
  MIC: 2 µg/mL (≈ 1.38 µM)
[6]; Staphylococcus aureus, read-out: Minimum inhibitory concentration, S. aureus BF1
  MIC: 1 µg/mL (≈ 0.69 µM)
[6]; Staphylococcus aureus, read-out: Minimum inhibitory concentration, S. aureus BF2
  MIC: 1 µg/mL (≈ 0.69 µM)
[6]; Staphylococcus aureus, read-out: Minimum inhibitory concentration, S. aureus BF3
  MIC: 1 µg/mL (≈ 0.69 µM)
[6]; Staphylococcus aureus, read-out: Minimum inhibitory concentration, S. aureus BF4
  MIC: 0.5 µg/mL (≈ 0.345 µM)
[6]; Staphylococcus aureus, read-out: Minimum inhibitory concentration, S. aureus BF5
  MIC: 0.5 µg/mL (≈ 0.345 µM)
[6]; Staphylococcus aureus, read-out: Minimum inhibitory concentration, S. aureus BF6
  MIC: 0.5 µg/mL (≈ 0.345 µM)
[6]; Staphylococcus aureus, read-out: Minimum inhibitory concentration, S. aureus BF7
  MIC: 0.5 µg/mL (≈ 0.345 µM)
[6]; Staphylococcus aureus, read-out: Minimum inhibitory concentration, S. aureus BF8
  MIC: 0.5 µg/mL (≈ 0.345 µM)
[6]; Staphylococcus aureus, read-out: Minimum inhibitory concentration, S. aureus BF9
  MIC: 0.5 µg/mL (≈ 0.345 µM)
[6]; Staphylococcus aureus, read-out: Minimum inhibitory concentration, S. aureus BF10
  MIC: 0.5 µg/mL (≈ 0.345 µM)
[6]; Staphylococcus aureus, read-out: Minimum inhibitory concentration, S. aureus BF11
  MIC: 1 µg/mL (≈ 0.69 µM)
[6]; Staphylococcus aureus, read-out: Minimum inhibitory concentration, S. aureus MW2
  MIC: 1 µg/mL (≈ 0.69 µM)
[6]; Staphylococcus aureus, read-out: Minimum inhibitory concentration, S. aureus VRS1
  MIC: > 64 µg/mL
[7]; Klebsiella pneumoniae, WGLW2, read-out: Minimum inhibitory concentration
  MIC: > 64 µg/mL

## gentamicin
[1]; P. aeruginosa PA14
  Minimum inhibitory concentration: 2 µg/mL
[2]; A. baumannii ATCC 17978
  Minimum inhibitory concentration: 1 µg/mL
[3]
  reduction of MRSA CFUs in the deep-seated mouse thigh infection model: unable to significantly reduce
[4]; E. aerogenes ATCC 13048
  Minimum inhibitory concentration: 2 µg/mL
[8]
  viability of MW2 persister cells, single agent: did not significantly affect
[5]; E. faecium C68
  Minimum inhibitory concentration: >64 µg/mL
[5]; E. faecium D14
  Minimum inhibitory concentration: 32 µg/mL
[5]; E. faecium D24
  Minimum inhibitory concentration: >64 µg/mL
[5]; E. faecium D25
  Minimum inhibitory concentration: 32 µg/mL
[5]; E. faecium D29
  Minimum inhibitory concentration: 64 µg/mL
[5]; E. faecium E007
  Minimum inhibitory concentration: >64 µg/mL
[5]; E. faecium WB213
  Minimum inhibitory concentration: 32 µg/mL
[5]; E. faecium WC176
  Minimum inhibitory concentration: 64 µg/mL
[6]; S. aureus BF1
  Minimum inhibitory concentration: 1 µg/mL
[6]; S. aureus BF2
  Minimum inhibitory concentration: 1 µg/mL
[6]; S. aureus BF3
  Minimum inhibitory concentration: 1 µg/mL
[6]; S. aureus BF4
  Minimum inhibitory concentration: 1 µg/mL
[6]; S. aureus BF5
  Minimum inhibitory concentration: 1 µg/mL
[6]; S. aureus BF6
  Minimum inhibitory concentration: 1 µg/mL
[6]; S. aureus BF7
  Minimum inhibitory concentration: 1 µg/mL
[6]; S. aureus BF8
  Minimum inhibitory concentration: 1 µg/mL
[6]; S. aureus BF9
  Minimum inhibitory concentration: 1 µg/mL
[6]; S. aureus BF10
  Minimum inhibitory concentration: 1 µg/mL
[6]; S. aureus BF11
  Minimum inhibitory concentration: 1 µg/mL
[6]; S. aureus MW2
  Minimum inhibitory concentration: 1 µg/mL
[6]; S. aureus MW2 mutant SP1-8 (graS)
  MIC: 0.25 µg/mL
[6]; S. aureus MW2 mutant SP1-48 (graS, manA)
  MIC: 0.25 µg/mL
[6]; S. aureus MW2 mutant SP1-74 (graS, manA, MW2474)
  MIC: 0.25 µg/mL
[6]; S. aureus MW2 mutant SP1-100 (graS, manA, MW2474)
  MIC: 0.25 µg/mL
[6]; S. aureus MW2 mutant SP2-13 (yjbH)
  MIC: 1 µg/mL
[6]; S. aureus MW2 mutant SP2-52 (yjbH, dltB)
  MIC: 0.25 µg/mL
[6]; S. aureus MW2 mutant SP2-59 (yjbH, dltB, manA)
  MIC: 0.25 µg/mL
[6]; S. aureus MW2 mutant SP2-65 (yjbH, dltB, manA, MW1685)
  MIC: 0.25 µg/mL
[6]; S. aureus MW2 mutant SP2-100 (yjbH dltB, manA, MW1685)
  MIC: 0.25 µg/mL
[6]; S. aureus MW2 serial passage culture SP1-1 (no mutated gene)
  MIC: 1 µg/mL
[6]; S. aureus MW2 serial passage culture SP2-1 (no mutated gene)
  MIC: 1 µg/mL
[6]; S. aureus VRS1
  Minimum inhibitory concentration: >64 µg/mL
[7]; K. pneumonia WGLW2
  Minimum inhibitory concentration: 1 µg/mL
